test system: Mouse bone marrow-derived mesenchymal cell line ST2 cells; assay: Osteoblast differentiation test (alkaline phosphatase activity); format: cell-based; settings: ST-2, 96 h, at 0.1 μg/mL, 4 days of culture, absorbance at 405 nm, DMSO control = 100%, read-out: alkaline phosphatase activity (increase rate in absorbance, control as 100%)
Procedure: Mouse bone marrow-derived mesenchymal cell line ST2 cells (source of supply: RIKEN) were seeded in α-MEM medium containing 10% fetal bovine serum (source of supply: GIBCO BRL Cat. No. 12000-022) in a 96 well plate at a cell density of 4×10^3 cells/0.1 mL/well, and cultured for 24 hr under the conditions of 37° C., 5% CO2. Then, each test compound was added at a final concentration of 0.001-10 μM, and the final concentration 0.1% (v/v) of DMSO was added to the control. After 4 days of culture, alkaline phosphatase (ALP) activity was measured by the following method.
The medium in the cultured 96 well plate was removed, the cells were washed with PBS buffer (KCl 0.2 g/L, KH2PO4 0.2 g/L, Na2HPO4.12H2O 2.9 g/L, NaCl 8 g/L) (100 μL/well), cell lysate (10 mM MgCl2, 2% (v/v) Triton X-100) (50 μL/well) was added, and the mixture was stirred at room temperature for 3 min. A substrate solution (50 mM diethanolamine (Wako Pure Chemical Industries, Ltd. Cat. No. 099-03112), 20 mM […] (Nacalai Tesque Cat. No. 25019-81)) (50 μL/well) was added, and the mixture was left standing at room temperature for 9 min. 1N NaOH 50 μL/well was added to discontinue the reaction, and the absorbance at 405 nm was measured by a microplate reader (Dainippon Pharmaceutical Co., Ltd.)
An increase rate (%) in the absorbance by the test compound was calculated based on the absorbance of the control as 100%, and the differentiation degree of the osteoblast was evaluated.

For `COc1cc(Nc2ccc(N3CC(OCCO)C3)cc2)c([N+](=O)[O-])cc1F` [Example 2, 2-{1-[4-(4-fluoro-5-methoxy-2-nitrophenylamino)phenyl]azetidin-3-yloxy}ethanol], which activity at 0.1 µg/mL is on record?
The activity at 0.1 µg/mL was no less than 200%.

With `NC(=O)c1ccc([N+](=O)[O-])c(Nc2ccc(N3CC(OCCO)C3)cc2)c1` [Example 5, 3-{4-[3-(2-hydroxyethoxy)azetidin-1-yl]phenylamino}-4-nitrobenzamide] as the molecule, how does the activity at 0.1 µg/mL read?
Its activity at 0.1 µg/mL is no less than 200%.

For `CC(=O)c1ccc(C(N)=O)cc1Nc1ccc(N2CC(OCCO)C2)cc1` [Example 6, 4-acetyl-3-{4-[3-(2-hydroxyethoxy)azetidin-1-yl]phenylamino}benzamide], which activity at 0.1 µg/mL is on record?
Its activity at 0.1 µg/mL is no less than 200%.

`COc1cc(Nc2ccc(N3CC(N4CCC(CO)CC4)C3)cc2)c(NC(C)=O)cn1` [Example 8, N-(4-{4-[3-(4-hydroxymethylpiperidin-1-yl)azetidin-1-yl]phenylamino}-6-methoxypyridin-3-yl)acetamide] was tested. Which activity at 0.1 µg/mL did it give?
The activity at 0.1 µg/mL was no less than 200%.

For `COc1cc(Nc2ccc(N3CC(N4CCOCC4)C3)cc2)c(NC(C)=O)cn1` [Example 9, N-{6-methoxy-4-[4-(3-morpholin-4-ylazetidin-1-yl)phenylamino]pyridin-3-yl}acetamide], which activity at 0.1 µg/mL is on record?
The activity at 0.1 µg/mL was no less than 200%.

For `COc1cc(Nc2ccc(N3CCN(CC(C)(C)C(=O)O)CC3)cc2)c([N+](=O)[O-])cc1F` [Example 13, 3-{4-[4-(4-fluoro-5-methoxy-2-nitrophenylamino)phenyl]piperazin-1-yl}-2,2-dimethylpropionic acid], which activity at 0.1 µg/mL is on record?
Its activity at 0.1 µg/mL is no less than 200%.

Which activity at 0.1 µg/mL does the source give for `COc1cc(Nc2ccc(N3CC(OCCNS(N)(=O)=O)C3)cc2)c(NC(C)=O)cn1` [Example 16, N-(4-{4-[3-(2-sulfamoylaminoethoxy)azetidin-1-yl]phenylamino}-6-methoxypyridin-3-yl)acetamide] here?
Its activity at 0.1 µg/mL is no less than 200%.

With `CC(=O)c1ccc(C(N)=O)cc1Nc1ccc(OCCOC2CCOCC2)cc1` [Example 17, 4-acetyl-3-{4-[2-(tetrahydropyran-4-yloxy)ethoxy]phenylamino}benzamide] as the molecule, how does the activity at 0.1 µg/mL read?
The activity at 0.1 µg/mL was no less than 200%.

Which activity at 0.1 µg/mL does the source give for `CC(F)(F)c1ccc(C(N)=O)cc1Nc1ccc(OCCOC2CCOCC2)cc1` [Example 18, 4-(1,1-difluoroethyl)-3-{4-[2-(tetrahydropyran-4-yloxy)ethoxy]phenylamino}benzamide] here?
Its activity at 0.1 µg/mL is no less than 200%.

With `CC(=O)c1ccc(C(N)=O)cc1Nc1ccc(OCCOC2CCS(=O)(=O)CC2)cc1` [Example 20, 4-acetyl-3-{4-[2-(1,1-dioxohexahydro-1λ^6-thiopyran-4-yloxy)ethoxy]phenylamino}benzamide] as the molecule, how does the activity at 0.1 µg/mL read?
The activity at 0.1 µg/mL was no less than 200%.

`CC(=O)c1ccc(C(N)=O)cc1Oc1ccc(N2CC(OCCO)C2)cc1` [Example 28, 4-acetyl-3-{4-[3-(2-hydroxyethoxy)azetidin-1-yl]phenoxy}benzamide] was tested. Which activity at 0.1 µg/mL did it give?
Its activity at 0.1 µg/mL is no less than 200%.

For `CC(=O)c1ccc(C(N)=O)c(Oc2ccc(N3CC(OCCO)C3)cc2)c1` [Example 29, 4-acetyl-2-{4-[3-(2-hydroxyethoxy)azetidin-1-yl]phenoxy}benzamide], which activity at 0.1 µg/mL is on record?
Its activity at 0.1 µg/mL is no less than 200%.

For `CC(=O)c1ccc(C(N)=O)cc1Oc1ccc(N2CCC(OCCO)CC2)cc1` [Example 30, 4-acetyl-3-{4-[4-(2-hydroxyethoxy)piperidin-1-yl]phenoxy}benzamide], which activity at 0.1 µg/mL is on record?
Its activity at 0.1 µg/mL is no less than 200%.

How did the activity at 0.1 µg/mL turn out when `CC(=O)c1ccc(C(N)=O)cc1Oc1ccc(OCCOCCOC(C)C)cc1` [Example 33, 4-acetyl-3-{4-[2-(2-isopropoxyethoxy)ethoxy]phenoxy}benzamide] was run?
Its activity at 0.1 µg/mL is no less than 200%.

With `CC(=O)c1ccc(C(N)=O)cc1Oc1ccc(/C=C/COC2CCOCC2)cc1` [Example 34, 4-acetyl-3-{4-[3-(tetrahydropyran-4-yloxy)propenyl]phenoxy}benzamide] as the molecule, how does the activity at 0.1 µg/mL read?
The activity at 0.1 µg/mL was no less than 200%.

`NC(=O)c1ccc(C(F)F)c(Oc2ccc(OCCOC3CCOCC3)cc2)c1` [Example 35, 4-difluoromethyl-3-{4-[2-(tetrahydropyran-4-yloxy)ethoxy]phenoxy}benzamide] was tested. Which activity at 0.1 µg/mL did it give?
Its activity at 0.1 µg/mL is no less than 200%.

How did the activity at 0.1 µg/mL turn out when `CC(F)c1ccc(C(N)=O)cc1Oc1ccc(OCCOC2CCOCC2)cc1` (stereo not drawn) [Example 39, 4-(1-fluoroethyl)-3-{4-[2-(tetrahydropyran-4-yloxy)ethoxy]phenoxy}benzamide] was run?
Its activity at 0.1 µg/mL is no less than 200%.

Which activity at 0.1 µg/mL does the source give for `CC(=O)c1ccc(C(N)=O)cc1Oc1ccc(COCCOC(C)C)cc1` [Example 40, 4-acetyl-3-[4-(2-isopropoxyethoxymethyl)phenoxy]benzamide] here?
Its activity at 0.1 µg/mL is no less than 200%.

Which activity at 0.1 µg/mL does the source give for `CC(=O)c1ccc(C(N)=O)cc1Oc1ccc(COC2CCOCC2)cc1` [Example 41, 4-acetyl-3-[4-(tetrahydropyran-4-yloxymethyl)phenoxy]benzamide] here?
The activity at 0.1 µg/mL was no less than 200%.

`CCC(=O)Nc1cnc(OC)cc1Nc1ccc(N2CC(OCCO)C2)cc1` [Example 45] was tested. Which activity at 0.1 µg/mL did it give?
Its activity at 0.1 µg/mL is no less than 200%.

Which activity at 0.1 µg/mL does the source give for `NC(=O)c1ccc(C(F)(F)F)c(Nc2ccc(N3CC(OCCO)C3)cc2)c1` [Example 47] here?
The activity at 0.1 µg/mL was no less than 200%.

With `CNC(=O)c1ccc([N+](=O)[O-])c(Nc2ccc(N3CC(OCCO)C3)cc2)c1` [Example 48] as the molecule, how does the activity at 0.1 µg/mL read?
Its activity at 0.1 µg/mL is no less than 200%.

Which activity at 0.1 µg/mL does the source give for `NC(=O)c1ccc([N+](=O)[O-])c(Nc2ccc(OCCOC3CCOCC3)cc2)c1` [Example 50] here?
The activity at 0.1 µg/mL was no less than 200%.

`CC(=O)c1ccc(C(N)=O)cc1Nc1ccc(OCCOC2CCOC2)cc1` (stereo not drawn) [Example 53] was tested. Which activity at 0.1 µg/mL did it give?
The activity at 0.1 µg/mL was no less than 200%.

Which activity at 0.1 µg/mL does the source give for `CC(=O)c1ccc(C(N)=O)c(Nc2ccc(OCCOC3CCOCC3)cc2)c1` [Example 57] here?
Its activity at 0.1 µg/mL is no less than 200%.

For `CC(=O)c1ccc(C(N)=O)c(Nc2ccc(OCCOC3CCS(=O)(=O)CC3)cc2)c1` [Example 58], which activity at 0.1 µg/mL is on record?
Its activity at 0.1 µg/mL is no less than 200%.

How did the activity at 0.1 µg/mL turn out when `NC(=O)c1ccc(C(F)(F)F)c(Oc2ccc(N3CC(OCCO)C3)cc2)c1` [Example 62] was run?
The activity at 0.1 µg/mL was no less than 200%.

How did the activity at 0.1 µg/mL turn out when `NC(=O)c1ccc([N+](=O)[O-])c(Oc2ccc(N3CCC(OCCO)CC3)cc2)c1` [Example 63] was run?
Its activity at 0.1 µg/mL is no less than 200%.

With `NC(=O)c1ccc(C(F)(F)F)c(Oc2ccc(OCCOC3CCOCC3)cc2)c1` [Example 64] as the molecule, how does the activity at 0.1 µg/mL read?
Its activity at 0.1 µg/mL is no less than 200%.

With `CC(C)OCCOCCOc1ccc(Oc2cc(C(N)=O)ccc2C(F)(F)F)cc1` [Example 65] as the molecule, how does the activity at 0.1 µg/mL read?
Its activity at 0.1 µg/mL is no less than 200%.

Which activity at 0.1 µg/mL does the source give for `CC(=O)c1ccc(C(N)=O)cc1Oc1ccc(CCCOC2CCOCC2)cc1` [Example 66] here?
Its activity at 0.1 µg/mL is no less than 200%.

`CC(=O)c1ccc(C(N)=O)c(Oc2ccc(OCCOC3CCOCC3)cc2)c1` [Example 70] was tested. Which activity at 0.1 µg/mL did it give?
The activity at 0.1 µg/mL was no less than 200%.

`CC(F)(F)c1ccc(C(N)=O)cc1Oc1ccc(OCCOC2CCOCC2)cc1` [Example 74] was tested. Which activity at 0.1 µg/mL did it give?
Its activity at 0.1 µg/mL is no less than 200%.

How did the activity at 0.1 µg/mL turn out when `NC(=O)c1ccc(C(F)(F)F)c(Oc2ccc(COC3CCOCC3)cc2)c1` [Example 82] was run?
Its activity at 0.1 µg/mL is no less than 200%.

`NC(=O)c1ccc(C(F)F)c(Oc2ccc(COC3CCOCC3)cc2)c1` [Example 83] was tested. Which activity at 0.1 µg/mL did it give?
Its activity at 0.1 µg/mL is no less than 200%.

How did the activity at 0.1 µg/mL turn out when `C[C@@H](O)c1ccc(C(N)=O)cc1Oc1ccc(N2CC(OCCO)C2)cc1` [Example 85] was run?
The activity at 0.1 µg/mL was no less than 200%.

For `COc1cc(Nc2ccc(N3CC(O)C3)cc2)c(NC(C)=O)cn1` [Example 88], which activity at 0.1 µg/mL is on record?
Its activity at 0.1 µg/mL is no less than 200%.

With `COc1cc(Nc2ccc(N3CC(OCC4CCCO4)C3)cc2)c(NC(C)=O)cn1` (stereo not drawn) [Example 89] as the molecule, how does the activity at 0.1 µg/mL read?
Its activity at 0.1 µg/mL is no less than 200%.

How did the activity at 0.1 µg/mL turn out when `NC(=O)c1ccc([N+](=O)[O-])c(Nc2ccc(N3CC(OCC4CCCO4)C3)cc2)c1` (stereo not drawn) [Example 90] was run?
Its activity at 0.1 µg/mL is no less than 200%.

For `CC(=O)Nc1ccc(C(N)=O)cc1Nc1ccc(N2CC(OCC3CCCO3)C2)cc1` (stereo not drawn) [Example 91], which activity at 0.1 µg/mL is on record?
Its activity at 0.1 µg/mL is no less than 200%.

`CC(=O)c1ccc(C(N)=O)cc1Nc1ccc(N2CC(OCC3CCCO3)C2)cc1` (stereo not drawn) [Example 92] was tested. Which activity at 0.1 µg/mL did it give?
Its activity at 0.1 µg/mL is no less than 200%.

How did the activity at 0.1 µg/mL turn out when `C[C@@H](O)c1ccc(C(N)=O)cc1Oc1ccc(N2CC(CO)C2)cc1` [Example 94] was run?
The activity at 0.1 µg/mL was no less than 200%.
